From patent US10544083B2, “GPBP inhibition using Q2 peptidomimetics” (FibroStatin, S.L., priority 2009, dated 2020)

target: T1, GPBP (Homo sapiens, UniProt Q9Y5P4); test: not given; conditions: see U.S. Pat. No. 7,326,768; cited from earlier work
T1 sequence (Q9Y5P4 1-624): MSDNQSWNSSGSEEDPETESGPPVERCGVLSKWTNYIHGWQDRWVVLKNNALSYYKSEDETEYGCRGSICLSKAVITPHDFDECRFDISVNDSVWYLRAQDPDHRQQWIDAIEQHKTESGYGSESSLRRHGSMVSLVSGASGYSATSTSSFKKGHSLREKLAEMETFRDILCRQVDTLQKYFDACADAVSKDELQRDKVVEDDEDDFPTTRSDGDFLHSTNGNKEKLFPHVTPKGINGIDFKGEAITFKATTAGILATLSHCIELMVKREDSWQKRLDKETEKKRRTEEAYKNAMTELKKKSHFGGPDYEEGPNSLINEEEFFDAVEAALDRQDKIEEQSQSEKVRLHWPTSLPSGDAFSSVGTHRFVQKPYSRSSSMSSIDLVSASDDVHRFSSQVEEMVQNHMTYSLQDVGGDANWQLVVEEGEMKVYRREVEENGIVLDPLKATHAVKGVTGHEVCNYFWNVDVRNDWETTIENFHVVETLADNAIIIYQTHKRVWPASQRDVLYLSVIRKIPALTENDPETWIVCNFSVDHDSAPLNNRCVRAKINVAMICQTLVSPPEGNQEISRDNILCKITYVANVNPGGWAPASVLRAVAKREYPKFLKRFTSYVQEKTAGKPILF

Row | Molecule | inhibition of GPBP autophosphorylation
1 | LATLSHCIELMVKR [Compound Q2, synthetic peptide representing the five-residue SHCIE motif of GPBP and flanking regions] | efficiently inhibited GPBP autophosphorylation

target: T2, yeast recombinant FLAG-GPBP (Homo sapiens, UniProt Q9Y5P4); test: FLAG-GPBP auto-phosphorylation assay; format: biochemical; conditions: 10 μM compound, 5 min at 30° C., autoradiography bands quantified, vehicle = 100; read-out: Relative kinase activity (% referred to vehicle)
T2 construct: FLAG; made in house
T2 sequence (Q9Y5P4 1-624): T1 sequence (Q9Y5P4 1-624)
Description: Goodpasture antigen-binding protein (GPBP) is a non-conventional Ser/Thr kinase which targets and phosphorylates the non-collagenous (NC1) domain of α3 chain of human type IV collagen [α3(IV)NC1], known as Goodpasture antigen. GPBP expression has been associated with antibody-mediated glomerulonephritis, rheumatoid arthritis and drug-resistance cancer. We have reported that GPBP self-interacts, that aggregation and autophosphorylation regulate kinase activity, and that the Q2 peptide inhibits autophosphorylation and GPBP kinase activity (WO 00/50607). The GPBP kinase inhibitory activity of a number of terphenylic compounds mimicking Q2, a peptide representing a critical GPBP motif which is relevant for GPBP quaternary structure stabilization, have been tested on GPBP autophosphorylation ability The autophosphorylation ability of GPBP has been used to test the GPBP kinase inhibitor activity of several terphenylic compounds (Scheme 18) derived from the chemical structure of Q2 peptide, which in turn represents GPBP peptidic sequence relevant for self-interaction.
Two hundred nanograms of yeast recombinant FLAG-GPBP were subjected to phosphorylation assays in absence (vehicle) or presence of a 10 μM concentration of each of the indicated Q2-peptidomimetic compounds or an intermediate of synthesis used as negative control (C), during 5 min at 30° C. Reactions were subjected to SDS-PAGE, Western blot and autoradiography. The bands in the autoradiography were quantified using Image-Quant TL software. The kinase activity of GPBP in the presence of the indicated compounds was referred to the sample containing the vehicle, which was given a value of 100.
Yeast recombinant FLAG-GPBP production and purification were also performed. GPBP autophosphorylation assay times were limited to 10 min at 30° C.

Row | activity at 10 µM [%] | Molecule
2 | 61 | Cc1cccc(-c2ccc(-c3ccc(O)cc3CCC(=O)O)cc2C(F)F)c1 [Compound 20a, 3-[2′-(difluoromethyl)-4″-hydroxy-3-methyl-(1,1′;4′,1″)terphenyl-2″-yl]propionic acid]
3 | 79 | COc1ccc(-c2ccc(-c3cccc(C)c3)c(C(F)F)c2)c(CCC(=O)O)c1 [Compound 22d, 3-[2′-(difluoromethyl)-4″-methoxy-3-methyl-(1,1′;4′,1″)terphenyl-2″-yl]propionic acid]
4 | 41 | COc1ccc(-c2ccc(-c3cccc(C(F)(F)F)c3)c(C)c2)c(CCC(=O)O)c1 [Compound 22f, 3-[2′-methyl-4″-methoxy-3-(trifluoromethyl)-(1,1′;4′,1″)terphenyl-2″-yl]propionic acid]
5 | 132 | COc1ccc(-c2ccc(-c3cccnc3)c(CO)c2)c(CCC(=O)O)c1 [Compound 22i, 3-[3′-(hydroxymethyl)-4-methoxy-4′-(pyridin-3-yl)biphenyl-2-yl]propionic acid]
6 | 44 | COc1ccc(-c2ccc(-c3cccc(C)c3)c(C)c2)c(CCC(=O)O)c1 [Compound 22b, 3-[4″-methoxy-3,2′-dimethyl-(1,1′;4′,1″)terphenyl-2″-yl]propionic acid]
7 | 50 | COc1ccc(-c2ccc(-c3cccnc3)c(C)c2)c(CCC(=O)O)c1 [Compound 22j, 3-[4-methoxy-3′-methyl-4′-(pyridin-3-yl)biphenyl-2-yl]propionic acid]
8 | 73 | CCCOc1ccc(-c2ccc(-c3cccc(C)c3)c(C)c2)c(CCC(=O)O)c1 [Compound 24a, 3-[3,2′-dimethyl-4″-propoxy-(1,1′;4′,1″)terphenyl-2″-yl]propionic acid]
9 | 58 | O=C(O)CCc1cc(O)ccc1-c1ccc(-c2cccnc2)c(CO)c1 [Compound 1c, 3-[4-hydroxy-3′-(hydroxymethyl)-4′-(pyridin-3-yl)biphenyl-2-yl]propionic acid]
10 | 36 | CCCOc1ccc(-c2ccc(-c3cccc(C(F)(F)F)c3)c(C)c2)c(CCC(=O)O)c1 [Compound 24c, 3-[2′-methyl-4″-propoxy-3-(trifluoromethyl)-(1,1′;4′,1″)terphenyl-2″-yl]propionic acid]
11 | 103 | COc1ccc(-c2ccc(-c3cccc(C(F)(F)F)c3)c(CF)c2)c(CCC(=O)O)c1 [Compound 22g, 3-[2′-(fluoromethyl)-4″-methoxy-3-(trifluoromethyl)-(1,1′;4′,1″)terphenyl-2″-yl]propionic acid]
12 | 77 | O=C(O)CCc1cc(O)ccc1-c1ccc(-c2cccc(C(F)(F)F)c2)c(C(F)F)c1 [Compound 20b, 3-[2′-(difluoromethyl)-4″-hydroxy-3-(trifluoromethyl)-(1,1′;4′,1″)terphenyl-2″-yl]propionic acid]
13 | 49 | Cc1cc(-c2ccc(O)cc2CCC(=O)O)ccc1-c1cccc(C(F)(F)F)c1 [Compound 12b, 3-[4″-hydroxy-2′-methyl-3-(trifluoromethyl)-(1,1′;4′,1″)terphenyl-2″-yl]propionic acid]
14 | 64 | Cc1cccc(-c2ccc(-c3ccc(OCC(=O)O)cc3CCC(=O)O)cc2C)c1 [Compound 24b, 3-[4″-(carboxymethoxy)-3,2′-dimethyl-(1,1′;4,1″)terphenyl-2″-yl]propionic acid]
15 | 136 | COc1ccc(-c2ccc(-c3cccnc3)c(C(F)F)c2)c(CCC(=O)O)c1 [Compound 22l, 3-[3′-(difluoromethyl)-4-methoxy-4′-(pyridin-3-yl)biphenyl-2-yl]propionic acid]
16 | 129 | COc1ccc(-c2ccc(-c3cccc(C(F)(F)F)c3)c(CO)c2)c(CCC(=O)O)c1 [Compound 22e, 3-[2′-(hydroxymethyl)-4″-methoxy-3-(trifluoromethyl)-(1,1′;4′,1″)terphenyl-2″-yl]propionic acid]
17 | 123 | COc1ccc(-c2ccc(-c3cccc(C)c3)c(CF)c2)c(CCC(=O)O)c1 [Compound 22c, 3-[2′-(fluoromethyl)-4″-methoxy-3-methyl-(1,1′;4′,1″)terphenyl-2″-yl]propionic acid]
18 | 28 | COc1ccc(-c2ccc(-c3ccc(OC)c(C)c3)c(C)c2)c(CCC(=O)O)c1 [Compound 32, 3-[4,4″-dimethoxy-3,2′-dimethyl-(1,1′;4′,1″)terphenyl-2″-yl]propionic acid]
19 | 79 | Cc1cccc(-c2ccc(-c3ccc(O)cc3CCC(=O)O)cc2CF)c1 [Compound 15a, 3-[2′-(fluoromethyl)-4″-hydroxy-3-methyl-(1,1′;4′,1″)terphenyl-2″-yl]propionic acid]
20 | 53 | Cc1cccc(-c2ccc(-c3ccc(O)cc3CCC(=O)O)cc2C)c1 [Compound 12a, 3-[4″-hydroxy-2′,3-dimethyl-(1,1′;4′,1″)terphenyl-2″-yl]propionic acid]
21 | 49 | COc1ccc(-c2ccc(-c3cccc(C(F)(F)F)c3)c(C(F)F)c2)c(CCC(=O)O)c1 [Compound 22h, 3-[2′-(difluoromethyl)-4″-methoxy-3-(trifluoromethyl)-(1,1′;4′,1″)terphenyl-2″-yl]propionic acid]
22 | 90 | Cc1cccc(-c2ccc(-c3ccc(O)cc3C(C)C)cc2CCC(=O)O)c1 [Compound 2a, 3-[4″-hydroxy-2″-isopropyl-3-methyl-(1,1′;4′,1″)terphenyl-2′-yl]propionic acid]
23 | 135 | COc1ccc(-c2ccc(-c3cccnc3)c(CF)c2)c(CCC(=O)O)c1 [Compound 22k, 3-[3′-(fluoromethyl)-4-methoxy-4′-(pyridin-3-yl)biphenyl-2-yl]propionic acid]
24 | 131 | O=C(O)CCc1cc(O)ccc1-c1ccc(-c2cccc(C(F)(F)F)c2)c(CO)c1 [Compound 1b, 3-[4″-hydroxy-2′-(hydroxymethyl)-3-(trifluoromethyl)-(1,1′;4′,1″)terphenyl-2″-yl]propionic acid]
25 | 21 | O=C(O)CCc1cc(O)ccc1-c1ccc(-c2cccc(C(F)(F)F)c2)c(CF)c1 [Compound 15b, 3-[2′-(fluoromethyl)-4″-hydroxy-3-(trifluoromethyl)-(1,1′;4′,1″)terphenyl-2″-yl]propionic acid]
26 | 118 | COc1ccc(-c2ccc(-c3cccc(C)c3)c(CO)c2)c(CCC(=O)O)c1 [Compound 22a, 3-[2′-(hydroxymethyl)-4″-methoxy-3-methyl-(1,1′;4′,1″)terphenyl-2″-yl]propionic acid]
27 | 34 | Cc1cccc(-c2ccc(-c3ccc(O)cc3CCC(=O)O)cc2CO)c1 [Compound 1a, 3-[4″-hydroxy-2′-(hydroxymethyl)-3-methyl-(1,1′;4′,1″)terphenyl-2″-yl]propionic acid]

target: T1, GPBP; test: not given; conditions: see U.S. Pat. No. 7,326,768; cited from earlier work; remark: another data set of the same source

Row | Molecule | α3(IV)NC1 conformer production by GPBP
28 | LATLSHCIELMVKR [Compound Q2, synthetic peptide representing the five-residue SHCIE motif of GPBP and flanking regions] | reduce α3(IV)NC1 conformer production
